Results on 6 compounds are retold here after patent US6407114B1, “Pyrazolopyrimidinone CGMP PDE5 inhibitors for the treatment of sexual dysfunction” (Pfizer Inc., priority 1998, dated 2002).

The target in this assay is cGMP PDE5 (UniProt O76074). The assay is described as follows: In vitro PDE inhibitory activity against cGMP PDE5. The assay is classed as biochemical. Conditions: in vitro inhibition of cGMP PDE5. How it is done:
In vitro PDE inhibitory activities against cyclic guanosine 3′,5′-monophosphate (cGMP) and cyclic adenosine 3′,5′-monophosphate (cAMP) phosphodiesterases were determined by measurement of their IC50 values (the concentration of compound required for 50% inhibition of enzyme activity).
The required PDE enzymes were isolated from a variety of sources, including human corpus cavernosum, human and rabbit platelets, human cardiac ventricle, human skeletal muscle and bovine retina, essentially by the method of W. J. Thompson and M. M. Appleman (Biochem., 1971, 10, 311). In particular, the cGMP-specific PDE (PDE5) and the cGMP-inhibited cAMP PDE (PDE3) were obtained from human corpus cavernosum tissue, human platelets or rabbit platelets; the cGMP-stimulated PDE (PDE2) was obtained from human corpus cavernosum; the calcium/calmodulin (Ca/CAM)-dependent PDE (PDE1) from human cardiac ventricle; the cAMP-specific PDE (PDE4) from human skeletal muscle; and the photoreceptor PDE (PDE6) from bovine retina.
Assays were performed using a modification of the “batch” method of W. J. Thompson et al. (Biochem., 1979, 18, 5228).
On to `CCCOc1ccc(S(=O)(=O)N2CCN(CC)CC2)cc1-c1nc2c(c(Cc3ccccn3)nn2CCC)c(=O)[nH]1` [Example 1, 6-[5-(4-Ethylpiperazin-1-ylsulphonyl)-2-n-propoxyphenyl]-1-n-propyl-3-(pyridin-2-yl)methyl-1,5-dihydro-4H-pyrazolo[3,4-d]pyrimidin-4-one], for which the IC50 – broadly, the point on the concentration scale where inhibition reaches its midpoint – was 9.3 nM.

`CCCn1nc(Cc2ccccc2)c2c(=O)[nH]c(-c3cc(S(=O)(=O)N4CCN(C)CC4)ccc3OCC)nc21` [Example 4, 3-Benzyl-6-[2-ethoxy-5-(4-methylpiperazin-1-ylsulphonyl)phenyl]-1-n-propyl-1,5-dihydro-4H-pyrazolo[3,4-d]pyrimidin-4-one]: 5.61 nM corresponded to half-maximal inhibition (IC50).

As for `CCCOc1ccc(S(=O)(=O)N2CCN(C)CC2)cc1-c1nc2c(c(C)nn2Cc2ccccn2)c(=O)[nH]1` [Example 14, 3-Methyl-6-[5-(4-methylpiperazin-1-ylsulphonyl)-2-n-propoxyphenyl]-1-(pyridin-2-yl)methyl-1,5-dihydro-4H-pyrazolo[3,4-d]pyrimidin-4-one], the IC50 was 4.4 nM.

In the case of `CCOc1ncc(S(=O)(=O)N2CCN(CC)CC2)cc1-c1nc2c(c(-c3cnccn3)nn2CC)c(=O)[nH]1` [Example 18, 6-[2-Ethoxy-5-(4-ethylpiperazin-1-ylsulphonyl)pyridin-3-yl]-1-ethyl-3-(pyrazin-2-yl)-1,5-dihydro-4H-pyrazolo[3,4-d]pyrimidin-4-one], the IC50 amounted to 8.1 nM.

`CCCn1nc(-c2cnccn2)c2c(=O)[nH]c(-c3cc(S(=O)(=O)N4CCN(CC)CC4)cnc3OCC)nc21` [Example 19, 6-[2-Ethoxy-5-(4-ethylpiperazin-1-ylsulphonyl)pyridin-3-yl]-1-n-propyl-3-(pyrazin-2-yl)-1,5-dihydro-4H-pyrazolo[3,4-d]pyrimidin-4-one] had an IC50 of 7.67 nM.

For the compound `CCOc1ncc(S(=O)(=O)N2CCN(CC)CC2)cc1-c1nc2c(c(-c3ccccc3)nn2CC)c(=O)[nH]1` [Example 21, 6-[2-Ethoxy-5-(4-ethylpiperazin-1-ylsulphonyl)pyridin-3-yl]-1-ethyl-3-phenyl-1,5-dihydro-4H-pyrazolo[3,4-d]pyrimidin-4-one], the IC50 came to 4.6 nM.
